31 compounds from the supplement of paper PMC11003180 can be followed below.

Holding throughout (assay): drug sensitivity score (DSS) from 5-dose viability curve (DSS (area-based score, 0 = no response)); higher = more sensitive (stronger viability inhibition); extreme values may be limits of the assay
The test system of assay [1] is MDCK wild-type + doxycycline. To be noted: doxycycline: 10 ng/mL; 72 h. The procedure, abridged: (§1)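 Pre-spotted 384-well plates held 528 oncology drugs, each at five doses from 1 to 10,000 nM. Parental and doxycycline-inducible MDCK cells, exposed beforehand to 10 ng/mL doxycycline in the medium, were added at 2000 cells/well and incubated 72 h at 37 °C. Viability came from CellTiter-Glo luminescence normalized per plate to vehicle and positive controls, and the Breeze pipeline fitted dose-response curves to give drug sensitivity scores.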

The subject of assay [2] is MDCK p60AmotL2-inducible + doxycycline (p60AmotL2 expressing). Conditions: doxycycline: 10 ng/mL; 72 h. The procedure, abridged:
as §1

The test system of assay [3] is MDCK wild-type - doxycycline. Conditions: doxycycline: none; 72 h. An outline of the steps:
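For 72 h at 37 °C, parental MDCK cells (no doxycycline, 2000 cells/well) were incubated on 384-well plates pre-spotted with 528 oncology drugs at five doses from 1 to 10,000 nM. CellTiter-Glo luminescence served as the viability readout, scaled per plate between vehicle and positive controls. The Breeze pipeline then fitted dose-response curves to yield drug sensitivity scores.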

For `COc1cc(CCc2cc(NC(=O)c3ccc(N4CC(C)NC(C)C4)cc3)n[nH]2)cc(OC)c1` (stereo not drawn) [AZD4547], the drug sensitivity score in assay [1], in assay [2] and in assay [3] was 0 each time.

In the case of `C[C@@H]1COCCN1c1cc(C2([S@](C)(=N)=O)CC2)nc(-c2cc[nH]c3nccc2-3)n1` [AZD6738], the drug sensitivity score in assay [1] was 3.4; in assay [2], 6.7; in assay [3], 1.3.

Take `CN(C)C(=O)c1ccc(S(=O)(=O)c2ccc(NC(=O)[C@@](C)(O)C(F)(F)F)c(Cl)c2)cc1` [AZD7545]: the drug sensitivity score in assay [1], in assay [2] and in assay [3] was 0 in each case.

Take `NC(=O)Nc1cc(-c2cccc(F)c2)sc1C(=O)N[C@H]1CCCNC1` [AZD7762]: the results for the drug sensitivity score in assay [1], in assay [2] and in assay [3] were 0.2, 0.3 and 0, respectively.

For the compound `COc1ccc(-c2ccc3c(N4CCOC[C@@H]4C)nc(N4CCOC[C@@H]4C)nc3n2)cc1CO` [AZD8055], the drug sensitivity score was determined as 17.8 in assay [1], 22.5 in assay [2] and 14.9 in assay [3].

As to `N#Cc1ccc2[nH]c(O)c(-c3ccc(CN4CCOCC4)cn3)c2c1` [AZD-1080], the drug sensitivity score in assay [1], in assay [2] and in assay [3] was 0 throughout.

With `Cc1ncc(-c2ccnc(Nc3ccc(S(C)(=O)=O)cc3)n2)n1C(C)C` [AZD-5438], the drug sensitivity score was 13.1 in assay [1], 9.1 in assay [2] and 9.9 in assay [3].

In the case of `Cc1cc([C@@H](C)Nc2ccccc2C(=O)O)c2nc(N3CCOCC3)cc(=O)n2c1` [AZD-6482], the drug sensitivity score in assay [1], in assay [2] and in assay [3] was 0 in each case.

As for `C[C@@H](Nc1cc(F)cc(F)c1)c1cc(C(=O)N(C)C)cc2c(=O)cc(N3CCOCC3)oc12` [AZD-8186], the results for the drug sensitivity score in assay [1], in assay [2] and in assay [3] were 0, 1.4 and 0, respectively.

Take `CCN1CCN(Cc2ccc(Nc3ncc(F)c(-c4cc(F)c5nc(C)n(C(C)C)c5c4)n3)nc2)CC1` [Abemaciclib]: the values for the drug sensitivity score in assay [1], in assay [2] and in assay [3] were 5.6, 7.3 and 3.3, respectively.

Consider `CN(C)Cc1c(C(=O)NCCOc2ccc(C(=O)NO)cc2)oc2ccccc12` [Abexinostat], for which the values for the drug sensitivity score in assay [1], in assay [2] and in assay [3] were 17.5, 18.8 and 15.6, respectively.

For `C[C@]12CC[C@H](O)CC1=CC[C@@H]1[C@@H]2CC[C@]2(C)C(c3cccnc3)=CC[C@@H]12` [Abiraterone], the drug sensitivity score in assay [1], in assay [2] and in assay [3] was 0 in each case.

Take `CC#CC(=O)N1CCC[C@H]1c1nc(-c2ccc(C(=O)Nc3ccccn3)cc2)c2c(N)nccn12` [Acalabrutinib]: the drug sensitivity score in assay [1], in assay [2] and in assay [3] was 0 throughout.

With `COc1cc(C)c(/C=C/C(C)=C/C=C/C(C)=C/C(=O)O)c(C)c1C` [Acitretin], the drug sensitivity score was found to be 0 in assay [1], 0 in assay [2] and 3.6 in assay [3].

On to `CN(C)C/C=C/C(=O)Nc1cc2c(Nc3ccc(F)c(Cl)c3)ncnc2cc1O[C@H]1CCOC1` [Afatinib], for which the drug sensitivity score was 3.5 in assay [1], 18.3 in assay [2] and 4.2 in assay [3].

Consider `Cn1ncc(Cl)c1-c1cc(C(=O)N[C@H](CN)Cc2cccc(F)c2)sc1Cl` [Afuresertib], for which the drug sensitivity score in assay [1], in assay [2] and in assay [3] was 0 throughout.

For the compound `COc1cccc2c1C(=O)c1c(O)c3c(c(O)c1C2=O)C[C@@](O)(/C(CO)=N/NC(=O)CCCCCN1C(=O)C=CC1=O)C[C@@H]3O[C@H]1C[C@H](N)[C@H](O)[C@H](C)O1` [Aldoxorubicin], the drug sensitivity score in assay [1] was found to be 8.6; in assay [2] it was 11.2; in assay [3] it was 4.5.

Turning to `CCc1cc2c(cc1N1CCC(N3CCOCC3)CC1)C(C)(C)c1[nH]c3cc(C#N)ccc3c1C2=O` [Alectinib], the drug sensitivity score in assay [1], in assay [2] and in assay [3] was 0 throughout.

For `COc1cc(Nc2ncc3c(n2)-c2ccc(Cl)cc2C(c2c(F)cccc2OC)=NC3)ccc1C(=O)O` [Alisertib], the drug sensitivity score in assay [1] stood at 0; in assay [2], 10.6; in assay [3], 0.

As for `Oc1ncnc2[nH]ncc12` [Allopurinol], the drug sensitivity score in assay [1], in assay [2] and in assay [3] was 0 in each case.

As for `Cc1nc(NC(=O)N2CCC[C@H]2C(N)=O)sc1-c1ccnc(C(C)(C)C(F)(F)F)c1` [Alpelisib], the drug sensitivity score in assay [1] was 0; in assay [2], 1.6; in assay [3], 0.7.

On to `O=C(Nc1cc(Oc2cc(F)c(NC(=O)C3(C(=O)Nc4ccc(F)cc4)CC3)cc2F)ccn1)C1CC1` [Altiratinib], for which the drug sensitivity score in assay [1] stood at 0; in assay [2], 8; in assay [3], 0.

`CN1CC[C@H](c2c(O)cc(O)c3c(=O)cc(-c4ccccc4Cl)oc23)[C@H](O)C1` [Alvocidib]: the drug sensitivity score was determined as 20.9 in assay [1], 18.3 in assay [2] and 21.5 in assay [3].

As for `CCN(CC)CCNC(=O)c1c(C)[nH]c(/C=C2\C(=O)Nc3ccc(-c4csc(-c5ccccc5)n4)cc32)c1C` [Amcasertib], the drug sensitivity score in assay [1], in assay [2] and in assay [3] was 0 in each case.

Regarding `CCC1(c2ccc(N)cc2)CCC(=O)NC1=O` (stereo not drawn) [Aminoglutethimide], the drug sensitivity score in assay [1], in assay [2] and in assay [3] was 0 each time.

Take `COc1cc(NS(C)(=O)=O)ccc1Nc1c2ccccc2nc2ccccc12` [Amsacrine]: the drug sensitivity score in assay [1] came to 8.8; in assay [2], 15.3; in assay [3], 7.6.

On to `S=C(NCc1ccc2c(c1)OCO2)N1CCN(c2ncnc3c2oc2ccccc23)CC1` [Amuvatinib], for which the drug sensitivity score in assay [1] worked out at 3.1; in assay [2], 6; in assay [3], 2.3.

Consider `O=C1CN2Cc3c(ccc(Cl)c3Cl)N=C2N1` [Anagrelide], for which the drug sensitivity score in assay [1], in assay [2] and in assay [3] was 0 throughout.

Turning to `CC(C)(C#N)c1cc(Cn2cncn2)cc(C(C)(C)C#N)c1` [Anastrozole], the drug sensitivity score in assay [1], in assay [2] and in assay [3] was 0 in each case.

For the compound `CNC(=O)c1ccc(N2C(=S)N(c3cnc(C#N)c(C(F)(F)F)c3)C(=O)C23CCC3)cc1F` [Apalutamide], the drug sensitivity score in assay [1], in assay [2] and in assay [3] was 0 in each case.

With `N#CC1(c2ccc(NC(=O)c3cccnc3NCc3ccncc3)cc2)CCCC1` [Apatinib], the drug sensitivity score is 2.7 in assay [1], 0 in assay [2] and 0 in assay [3].
